Measured values from ChEMBL document CHEMBL4138123, “Design, synthesis and biological evaluation of novel pyrazolochalcones as potential modulators of PI3K/Akt/mTOR pathway and inducers of apoptosis in breast cancer cells” (Eur J Med Chem, 2017).

Key:
Assay type in all cases: functional
[1] = tested on: SNB-19; assay: Cytotoxicity against human SNB19 cells assessed as growth inhibition after 48 hrs by sulforhodamine B assay; settings: SNB-19, 48 h; for CC50: read-out: LC50 (the source's name)
[2] = tested on: U-251; assay: Cytotoxicity against human U251 cells assessed as growth inhibition after 48 hrs by sulforhodamine B assay; settings: U-251, 48 h
[3] = tested on: LOX IMVI; assay: Cytotoxicity against human LOXIMVI cells assessed as growth inhibition after 48 hrs by sulforhodamine B assay
[4] = tested on: UACC-257; assay: Cytotoxicity against human UACC257 cells assessed as growth inhibition after 48 hrs by sulforhodamine B assay; settings: UACC-257, 48 h
[5] = tested on: OVCAR-4; assay: Cytotoxicity against human OVCAR4 cells assessed as growth inhibition after 48 hrs by sulforhodamine B assay; settings: OVCAR-4, 48 h
[6] = tested on: RXF 393; assay: Cytotoxicity against human RXF393 cells assessed as growth inhibition after 48 hrs by sulforhodamine B assay; settings: RXF 393, 48 h
[7] = tested on: Hs-578T; assay: Cytotoxicity against human Hs 578T cells assessed as growth inhibition after 48 hrs by sulforhodamine B assay
[8] = tested on: BT-549; assay: Cytotoxicity against human BT549 cells assessed as growth inhibition after 48 hrs by sulforhodamine B assay; settings: BT-549, 48 h
[9] = tested on: ACHN; assay: Cytotoxicity against human ACHN cells assessed as cell growth at 0.01 uM after 48 hrs by sulforhodamine B assay relative to control; settings: read-out: Activity
[10] = tested on: OVCAR-3; assay: Cytotoxicity against human OVCAR3 cells assessed as cell growth at 0.01 uM after 48 hrs by sulforhodamine B assay relative to control; settings: OVCAR-3, 48 h, read-out: Activity
[11] = tested on: UACC-257; assay: Cytotoxicity against human UACC257 cells assessed as cell growth at 0.01 uM after 48 hrs by sulforhodamine B assay relative to control; settings: UACC-257, 48 h, read-out: Activity
[12] = tested on: NCI-H522; assay: Cytotoxicity against human NCI-H522 cells assessed as cell growth at 0.01 uM after 48 hrs by sulforhodamine B assay relative to control; settings: NCI-H522, 48 h, read-out: Activity
[13] = tested on: HL-60(TB); assay: Cytotoxicity against human HL-60(TB) cells assessed as cell growth at 0.1 uM after 48 hrs by sulforhodamine B assay relative to control; settings: HL-60, 48 h, read-out: Activity
[14] = tested on: HCT-116; assay: Cytotoxicity against human HCT116 cells assessed as cell growth at 0.1 uM after 48 hrs by sulforhodamine B assay relative to control; settings: HCT-116, 48 h, read-out: Activity
[15] = tested on: SW-620; assay: Cytotoxicity against human SW620 cells assessed as cell growth at 0.1 uM after 48 hrs by sulforhodamine B assay relative to control; settings: SW-620, 48 h, read-out: Activity
[16] = tested on: U-251; assay: Cytotoxicity against human U251 cells assessed as cell growth at 0.1 uM after 48 hrs by sulforhodamine B assay relative to control; settings: U-251, 48 h, read-out: Activity
[17] = tested on: Malme-3M; assay: Cytotoxicity against human MALME-3M cells assessed as cell growth at 0.1 uM after 48 hrs by sulforhodamine B assay relative to control; settings: read-out: Activity
[18] = tested on: UACC-257; assay: Cytotoxicity against human UACC257 cells assessed as cell growth at 0.1 uM after 48 hrs by sulforhodamine B assay relative to control; settings: UACC-257, 48 h, read-out: Activity
[19] = tested on: UACC-62; assay: Cytotoxicity against human UACC62 cells assessed as cell growth at 0.1 uM after 48 hrs by sulforhodamine B assay relative to control; settings: UACC-62, 48 h, read-out: Activity
[20] = tested on: 786-0; assay: Cytotoxicity against human 786-0 cells assessed as cell growth at 0.1 uM after 48 hrs by sulforhodamine B assay relative to control; settings: 786-0, 48 h, read-out: Activity
[21] = tested on: MCF7; assay: Cytotoxicity against human MCF7 cells assessed as cell growth at 0.1 uM after 48 hrs by sulforhodamine B assay relative to control; settings: MCF7, 48 h, read-out: Activity
[22] = tested on: Hs-578T; assay: Cytotoxicity against human Hs 578T cells assessed as cell growth at 0.1 uM after 48 hrs by sulforhodamine B assay relative to control; settings: read-out: Activity
[23] = tested on: SF-268; assay: Cytotoxicity against human SF268 cells assessed as cell growth at 1 uM after 48 hrs by sulforhodamine B assay relative to control; settings: SF-268, 48 h, read-out: Activity
[24] = tested on: RXF 393; assay: Cytotoxicity against human RXF393 cells assessed as cell growth at 1 uM after 48 hrs by sulforhodamine B assay relative to control; settings: RXF 393, 48 h, read-out: Activity
[25] = tested on: PC-3; assay: Cytotoxicity against human PC3 cells assessed as cell growth at 1 uM after 48 hrs by sulforhodamine B assay relative to control; settings: PC-3, 48 h, read-out: Activity
[26] = tested on: NCI-H322M; assay: Cytotoxicity against human NCI-H322M cells assessed as cell growth at 10 uM after 48 hrs by sulforhodamine B assay relative to control; settings: read-out: Activity
[27] = tested on: NCI-H522; assay: Cytotoxicity against human NCI-H522 cells assessed as cell growth at 10 uM after 48 hrs by sulforhodamine B assay relative to control; settings: NCI-H522, 48 h, read-out: Activity
[28] = tested on: MDA-MB-435; assay: Cytotoxicity against human MDA-MB-435 cells assessed as cell growth at 10 uM after 48 hrs by sulforhodamine B assay relative to control; settings: MDA-MB-435, 48 h, read-out: Activity
[29] = tested on: MCF7; assay: Cytotoxicity against human MCF7 cells assessed as cell growth at 10 uM after 48 hrs by sulforhodamine B assay relative to control; settings: MCF7, 48 h, read-out: Activity
[30] = tested on: T47D; assay: Cytotoxicity against human T47D cells assessed as cell growth at 10 uM after 48 hrs by sulforhodamine B assay relative to control; settings: read-out: Activity
[31] = tested on: MDA-MB-435; assay: Cytotoxicity against human MDA-MB-435 cells assessed as cell growth at 100 uM after 48 hrs by sulforhodamine B assay relative to control; settings: MDA-MB-435, 48 h, read-out: Activity
[32] = tested on: UACC-62; assay: Cytotoxicity against human UACC62 cells assessed as cell growth at 100 uM after 48 hrs by sulforhodamine B assay relative to control; settings: UACC-62, 48 h, read-out: Activity
[33] = tested on: OVCAR-4; assay: Cytotoxicity against human OVCAR4 cells assessed as cell growth at 100 uM after 48 hrs by sulforhodamine B assay relative to control; settings: OVCAR-4, 48 h, read-out: Activity
[34] = tested on: PC-3; assay: Cytotoxicity against human PC3 cells assessed as cell growth at 100 uM after 48 hrs by sulforhodamine B assay relative to control; settings: PC-3, 48 h, read-out: Activity
[35] = tested on: BT-549; assay: Cytotoxicity against human BT549 cells assessed as cell growth at 100 uM after 48 hrs by sulforhodamine B assay relative to control; settings: BT-549, 48 h, read-out: Activity

## COc1cc(C(=O)/C=C/c2cc(-c3cc(OC)c(OC)c(OC)c3)n[nH]2)cc(OC)c1OC
[1]
  TGI: 3.69 µM
  CC50: 8.2 µM
[2]
  LC50: 5.67 µM
  TGI: 2.96 µM
[3]
  LC50: 5.57 µM
  TGI: 2.91 µM
[4]
  LC50: 5.71 µM
  TGI: 2.99 µM
[5]
  LC50: 5.25 µM
  TGI: 2.76 µM
[6]
  LC50 (concentration killing 50% of cells): 5.68 µM
  TGI: 2.67 µM
[7]
  LC50: > 100 µM
  TGI: 53.9 µM
[8]
  LC50 (concentration killing 50% of cells): 5.6 µM
  TGI: 2.96 µM
[9]
  growth at 0.01 µM: 103%
[10]
  growth at 0.01 µM: 107%
[11]
  growth at 0.01 µM: 94%
[12]
  growth at 0.01 µM: 101%
[13]
  growth at 0.1 µM: 101%
[14]
  growth at 0.1 µM: 104%
[15]
  growth at 0.1 µM: 97%
[16]
  growth at 0.1 µM: 94%
[17]
  growth at 0.1 µM: 101%
[18]
  growth at 0.1 µM: 91%
[19]
  growth at 0.1 µM: 95%
[20]
  growth at 0.1 µM: 105%
[21]
  growth at 0.1 µM: 95%
[22]
  growth at 0.1 µM: 90%
[23]
  growth at 1 µM: 89%
[24]
  growth at 1 µM: 65%
[25]
  growth at 1 µM: 74%
[26]
  growth at 10 µM: -41%
[27]
  growth at 10 µM: -97%
[28]
  growth at 10 µM: -90%
[29]
  growth at 10 µM: -85%
[30]
  growth at 10 µM: -82%
[31]
  growth at 100 µM: -83%
[32]
  growth at 100 µM: -97%
[33]
  growth at 100 µM: -98%
[34]
  growth at 100 µM: -94%
[35]
  growth at 100 µM: -94%

## COc1cc(-c2cc(/C=C/C(=O)c3ccc(Cl)c(Cl)c3)[nH]n2)cc(OC)c1OC
[1]
  TGI: > 100 µM
  CC50: > 100 µM
[2]
  LC50: > 100 µM
  TGI: 80.5 µM
[3]
  LC50: 78.4 µM
  TGI: 16.4 µM
[4]
  LC50: > 100 µM
  TGI: 74 µM
[5]
  LC50: > 100 µM
  TGI: 50.9 µM
[6]
  LC50 (concentration killing 50% of cells): 54.6 µM
  TGI: 12.8 µM
[7]
  LC50: > 100 µM
  TGI: > 100 µM
[8]
  LC50 (concentration killing 50% of cells): 92.6 µM
  TGI: 29.3 µM
[9]
  growth at 0.01 µM: 107%
[10]
  growth at 0.01 µM: 103%
[11]
  growth at 0.01 µM: 96%
[12]
  growth at 0.01 µM: 92%
[13]
  growth at 0.1 µM: 100%
[14]
  growth at 0.1 µM: 100%
[15]
  growth at 0.1 µM: 99%
[16]
  growth at 0.1 µM: 95%
[17]
  growth at 0.1 µM: 95%
[18]
  growth at 0.1 µM: 96%
[19]
  growth at 0.1 µM: 94%
[20]
  growth at 0.1 µM: 94%
[21]
  growth at 0.1 µM: 105%
[22]
  growth at 0.1 µM: 105%
[23]
  growth at 1 µM: 92%
[24]
  growth at 1 µM: 81%
[25]
  growth at 1 µM: 87%
[26]
  growth at 10 µM: 59%
[27]
  growth at 10 µM: -72%
[28]
  growth at 10 µM: 37%
[29]
  growth at 10 µM: 15%
[30]
  growth at 10 µM: 9%
[31]
  growth at 100 µM: 6%
[32]
  growth at 100 µM: 14%
[33]
  growth at 100 µM: -22%
[34]
  growth at 100 µM: 10%
[35]
  growth at 100 µM: -53%
